{"source": "patent US20220041627A1", "about": "“PRODRUGS OF ANTI-CANCER AND ANTI-AUTOIMMUNE DISEASES THERAPEUTIC AGENTS, AND METHODS OF MAKING AND USE THEREOF” (UNIVERSITY OF MARYLAND, BALTIMORE, priority 2018, published 2022)", "key": {"SF-295": {"tested_on": "SF-295", "test": "NCI-60 growth inhibition, SF-295", "type": "cell-based, human", "source_text": "(§1) The anticancer effects of compounds 1a-1b against 60 human cancer cell lines (the Developmental Therapeutics Program of NCI) were studied. The cell lines were derived from different cancer types including leukemia, non-small-cell lung cancer, colon cancer, CNS cancer, melanoma, ovarian cancer, renal cancer, prostate cancer, and breast cancer (Table 1; the assay protocol can be found at: https://dtp.cancer.gov/default.htm). Compound 1a caused over 50% growth inhibition for most tested cell lines. […] Without wishing to be bound by any particular theory, it is believed that the differences in the anticancer effects between compounds 1a and 1b may be due to the more favorable cell membrane permeability of the boronic ester 1a."}, "786-0": {"tested_on": "786-0", "test": "NCI-60 growth inhibition, 786-0", "type": "cell-based, human", "source_text": "as §1"}, "IGROV1": {"tested_on": "IGROV1", "test": "NCI-60 growth inhibition, IGROV1", "type": "cell-based, human", "source_text": "as §1"}, "PC-3": {"tested_on": "PC-3", "test": "NCI-60 growth inhibition, PC-3", "type": "cell-based, human", "source_text": "as §1"}, "HCC-2998": {"tested_on": "HCC-2998", "test": "NCI-60 growth inhibition, HCC-2998", "type": "cell-based, human", "source_text": "as §1"}, "OVCAR-5": {"tested_on": "OVCAR-5", "test": "NCI-60 growth inhibition, OVCAR-5", "type": "cell-based, human", "source_text": "as §1"}, "NCI-H23": {"tested_on": "NCI-H23", "test": "NCI-60 growth inhibition, NCI-H23", "type": "cell-based, human", "source_text": "as §1"}, "MDA-MB-435": {"tested_on": "MDA-MB-435", "test": "NCI-60 growth inhibition, MDA-MB-435", "type": "cell-based, human", "source_text": "as §1"}, "UACC-62": {"tested_on": "UACC-62", "test": "NCI-60 growth inhibition, UACC-62", "type": "cell-based, human", "source_text": "as §1"}, "HL-60(TB)": {"tested_on": "HL-60(TB)", "test": "NCI-60 growth inhibition, HL-60(TB)", "type": "cell-based, human", "conditions": "Leukemia HL-60(TB), 48 h", "source_text": "as §1"}, "γH2AX": {"tested_on": "γH2AX", "test": "γH2AX immunofluorescence assay in MCF7 cells", "type": "cell-based, human", "conditions": "48 h", "experimental": "FIGS. 4A and 4B illustrate the effect of compounds 1a-1b in apoptosis. FIG. 4A: immunofluorescence of DNA cleavage protein γH2Ax was enhanced by using 5-FU and prodrugs 1a-1b. FIG. 4B: immunoblot analysis of MCF-7 cells treated with 5-FU, prodrugs 1a-1b for apoptosis markers PARP1 and Caspase 3. The cells were treated for 48 h with the indicated concentrations of compounds.\nImmunohistochemistry Analysis. MCF7 cells were seeded on poly-D-lysine coated slides. Compounds were incubated with cells for 48 h. Following treatment, cells were washed once in PBS and fixed in 10% formalin for 20 min at room temperature. Methanol was used to permeabilize the cells for 10 min and PBS wash was carried out. Bovine serum albumin was used for 1 h blocking and primary antibodies for γH2AX (SCBT, #sc-517348) was incubated with the cells overnight. Fluorescent secondary antibodies were incubated with cells along with DAPI. Cells were washed trice with PBS and the slides were mounted prior to confocal imaging.\nTo understand the mechanism of action of prodrugs 1a-1b, the impact of the treatment of compounds 1a-1b on the γH2AX formation in MCF7 cells were determined using immunofluorescence assay (FIG. 4A). […] The effects of prodrugs 1a-1b on the PARP1 and caspase 3 cleavage in MCF7 cells were also determined using Western blots assays (FIG. 4B). […] Treatment of 5-FU and compounds 1a-1b increased the levels of cleavage of PARP1 and caspase 3 in MCF7 cells, as compared with that in the vehicle-treated controls. Therefore, prodrugs 1a-1b, similar to 5-FU, can induce MCF7 cell apoptosis, which might contribute to their pharmacological actions."}, "[1]": {"test": "5-FU release study with H2O2 (LC/MS)", "type": "physicochemical", "conditions": "for activation by H2O2 to release 5-FU: prodrug 100 μM, H2O2 5 equiv, 30% DMSO in PBS, 37° C., RP-UPLC-MS", "experimental": "FIGS. 1A and 1B illustrate the release of 5-FU from compounds 1a-1b. Incubation of prodrugs 1a-1b (100 μM) was carried out in the presence of 5 equivalent of H2O2: (FIG. 1A) compound 1a and (FIG. 1B) compound 1b. The conversion of prodrugs 1a-1b and release of 5-FU was monitored. The data represent mean±SD of triplicates.\nRelease of 5-FU from the prodrugs was performed at 37° C. in 30% DMSO/Phosphate Buffered saline (PBS). The compounds were co-incubated at 100 μM together with hydrogen peroxide (H2O2) in triplicates. At each time point, aliquots were taken from the solution and diluted in acetonitrile for quantitation in the LC/MS. LC/MS Analysis: samples were analyzed using Xevo TQ-XS Triple Quadrupole Mass Spectrometry (Waters Corp, Milford, Mass.). The column used was a Cortecs C18+2.7 μm 2.1×75 mm column. A 3-min gradient elution with 0.5 mL/min flow rate was used for the samples. Running gradient: 95% mobile phase A over 1.2 min, 95% mobile phase B over 1.2 min, and 95% A 0.6 min, with elution at 1.64 min for the compounds. The ion transitions monitored for the compounds were 5-FU (129.0>40.1) 1a (345.2>86.0), and 1b (263.1>176.1).\nCompounds 1a-1b were incubated in a mixture of DMSO in PBS (30%) with the addition of H2O2 (5 equiv) at 37° C. The conversion of prodrugs 1a-1b and the production of 5-FU were followed using RP-UPLC-MS."}, "RXF 393": {"tested_on": "RXF 393", "test": "NCI-60 growth inhibition, RXF 393", "type": "cell-based, human", "source_text": "as §1"}, "MCF7": {"tested_on": "MCF7", "test": "NCI-60 growth inhibition, MCF7", "type": "cell-based, human", "source_text": "as §1"}, "T-47D": {"tested_on": "T-47D", "test": "NCI-60 growth inhibition, T-47D", "type": "cell-based, human", "conditions": "Breast Cancer T-47D, 48 h", "source_text": "as §1"}, "UO-31": {"tested_on": "UO-31", "test": "NCI-60 growth inhibition, UO-31", "type": "cell-based, human", "source_text": "as §1"}, "SR": {"tested_on": "SR", "test": "NCI-60 growth inhibition, SR", "type": "cell-based, human", "conditions": "Leukemia SR, 48 h", "source_text": "as §1"}, "TK-10": {"tested_on": "TK-10", "test": "NCI-60 growth inhibition, TK-10", "type": "cell-based, human", "source_text": "as §1"}}}
{"smiles": "CC1(C)OB(c2ccc(Cn3cc(F)c(=O)[nH]c3=O)cc2)OC1(C)C", "note": "[Compound 1a, 5-Fluoro-1-(4-(4,4,5,5-tetramethyl-1,3,2-dioxaborolan-2-yl)benzyl)pyrimidine-2,4(1H,3H)-dione]", "values": [{"measurement": "inhibition at 50 µM", "setting": "SF-295; Homo sapiens, CNS Cancer SF-295, 48 h", "result": 14, "unit": "%"}, {"measurement": "inhibition at 50 µM", "setting": "786-0; Homo sapiens, Renal Cancer 786-0, 48 h", "result": 19, "unit": "%"}, {"measurement": "inhibition at 50 µM", "setting": "IGROV1; Homo sapiens, IGROV-1, Ovarian Cancer IGROV1, 48 h", "result": 56, "unit": "%"}, {"measurement": "inhibition at 50 µM", "setting": "PC-3; Homo sapiens, Prostate Cancer PC-3, 48 h", "result": 45, "unit": "%"}, {"measurement": "inhibition at 50 µM", "setting": "HCC-2998; Homo sapiens, Colon Cancer HCC-2998, 48 h", "result": 26, "unit": "%"}, {"measurement": "inhibition at 50 µM", "setting": "OVCAR-5; Homo sapiens, Ovarian Cancer OVCAR-5, 48 h", "result": 30, "unit": "%"}, {"measurement": "inhibition at 50 µM", "setting": "NCI-H23; Homo sapiens, Non-Small Cell lung Cancer NCI-H23, 48 h", "result": 32, "unit": "%"}, {"measurement": "inhibition at 50 µM", "setting": "MDA-MB-435; Homo sapiens, Melanoma MDA-MB-435, 48 h", "result": 96, "unit": "%"}, {"measurement": "inhibition at 50 µM", "setting": "UACC-62; Homo sapiens, Melanoma UACC-62, 48 h", "result": 71, "unit": "%"}, {"measurement": "inhibition at 50 µM", "setting": "HL-60(TB); Homo sapiens", "result": 68, "unit": "%"}, {"measurement": "γH2AX formation", "setting": "γH2AX", "result": "dramatically increased"}, {"measurement": "activation by H2O2 to release 5-FU", "setting": "[1]", "result": "activated efficiently"}, {"measurement": "hydrolysis of boronic ester to boronic acid 1b", "setting": "[1]; under the release assay conditions (30% DMSO in PBS, H2O2 5 equiv, 37° C.)", "result": "hydrolyzes rapidly"}, {"measurement": "inhibition at 50 µM", "setting": "RXF 393; Homo sapiens, Renal Cancer RXF 393, 48 h", "result": 40, "unit": "%"}, {"measurement": "inhibition at 50 µM", "setting": "MCF7; Homo sapiens, Breast Cancer MCF7, 48 h", "result": 81, "unit": "%"}, {"measurement": "inhibition at 50 µM", "setting": "T-47D; Homo sapiens, T47D", "result": 51, "unit": "%"}, {"measurement": "inhibition at 50 µM", "setting": "UO-31; Homo sapiens, Renal Cancer UO-31, 48 h", "result": 27, "unit": "%"}, {"measurement": "inhibition at 50 µM", "setting": "SR; Homo sapiens", "result": 60, "unit": "%"}, {"measurement": "inhibition at 50 µM", "setting": "TK-10; Homo sapiens, Renal Cancer TK-10, 48 h", "result": 21, "unit": "%"}]}
{"smiles": "O=c1[nH]c(=O)n(Cc2ccc(B(O)O)cc2)cc1F", "note": "[Compound 1b, (4-((5-Fluoro-2,4-dioxo-3,4-dihydropyrimidin-I(2H)-yl)methyl)phenyl)boronic acid]", "values": [{"measurement": "Growth Inhibition (%)", "setting": "SF-295; CNS Cancer SF-295, 50 μM, 48 h", "result": 5, "unit": "%"}, {"measurement": "Growth Inhibition (%)", "setting": "786-0; Renal Cancer 786-0, 50 μM, 48 h", "result": 6, "unit": "%"}, {"measurement": "Growth Inhibition (%)", "setting": "IGROV1; Ovarian Cancer IGROV1, 50 μM, 48 h", "result": 15, "unit": "%"}, {"measurement": "Growth Inhibition (%)", "setting": "PC-3; Prostate Cancer PC-3, 50 μM, 48 h", "result": 14, "unit": "%"}, {"measurement": "Growth Inhibition (%)", "setting": "HCC-2998; Colon Cancer HCC-2998, 50 μM, 48 h", "result": 5, "unit": "%"}, {"measurement": "Growth Inhibition (%)", "setting": "OVCAR-5; Ovarian Cancer OVCAR-5, 50 μM, 48 h", "result": 19, "unit": "%"}, {"measurement": "Growth Inhibition (%)", "setting": "NCI-H23; Non-Small Cell lung Cancer NCI-H23, 50 μM, 48 h", "result": 6, "unit": "%"}, {"measurement": "Growth Inhibition (%)", "setting": "MDA-MB-435; Melanoma MDA-MB-435, 50 μM, 48 h", "result": 65, "unit": "%"}, {"measurement": "Growth Inhibition (%)", "setting": "UACC-62; Melanoma UACC-62, 50 μM, 48 h", "result": 30, "unit": "%"}, {"measurement": "Growth Inhibition (%)", "setting": "HL-60(TB); 50 μM", "result": 11, "unit": "%"}, {"measurement": "γH2AX formation", "setting": "γH2AX", "result": "dramatically increased"}, {"measurement": "activation by H2O2 to release 5-FU", "setting": "[1]", "result": "activated efficiently"}, {"measurement": "Growth Inhibition (%)", "setting": "RXF 393; Renal Cancer RXF 393, 50 μM, 48 h", "result": 17, "unit": "%"}, {"measurement": "Growth Inhibition (%)", "setting": "MCF7; Breast Cancer MCF7, 50 μM, 48 h", "result": 33, "unit": "%"}, {"measurement": "Growth Inhibition (%)", "setting": "T-47D; 50 μM", "result": 5, "unit": "%"}, {"measurement": "Growth Inhibition (%)", "setting": "UO-31; Renal Cancer UO-31, 50 μM, 48 h", "result": 27, "unit": "%"}, {"measurement": "Growth Inhibition (%)", "setting": "SR; 50 μM", "result": 16, "unit": "%"}, {"measurement": "Growth Inhibition (%)", "setting": "TK-10; Renal Cancer TK-10, 50 μM, 48 h", "result": 20, "unit": "%"}]}
